These results are taken from US20240226066A1, “CARDIOPROTECTION BY AUTOPHAGY INDUCTION AND METABOLIC REPROGRAMMING” (UNIVERSITE PARIS-SACLAY, priority 2021, published 2024).

The test system of experiment [1] is A549 lung cancer cell line. The experiment in a line: Influence of hits on growth of A549 cancer cells (total LDH after lysis). The note with it: 48 h. The format is cell-based. As for the experimental part: The cells were cultured for 6 h in the presence or absence of the hits, and then for 42 h. Finally, the cells were lysed with lysis buffer and the amount of LDH was measured to evaluate the total cell growth.
A colorimetric assay was used to measure lactate dehydrogenase (LDH), a cytosolic enzyme which is released during permeabilization of the plasma membrane (Promega G1780). The assay was performed using cell culture supernatants obtained from H9C2 or RNVC (rat neonatal ventricular myocyte) cells and lysis buffer (LB) was used as a positive control for total cell lysis. The LDH release was measured by absorbance reading at 490 nm (Infinite spectrofluorimeter, Tecan).
The effect of the compounds was then evaluated on primary rat neonatal ventricular cardiomyocytes (RNVCs) using the LDH test and propidium iodide staining. […] The absence of proliferative effects of the compounds was also evaluated on the A549 lung cancer cell line for 48 h (FIG. 2C).

Experiment [2] has as its system RNVCs. The experiment in a line: Mitochondrial network and cell volume by confocal microscopy (Mitotracker, calcein-AM, IMARIS). The settings on record: 1 and 10 μM, 6 h. The format is cell-based, rat. As for the experimental part: FIG. 6. Effects on mitochondrial dynamics by fluorescence microscopy The RNVCs were treated with 1 μM hits (FIG. 6A) and 10 μM hits (FIG. 6B) for 6 h and the mitochondrial network was stained with 200 nM of Mitotracker. The mitochondrial network and individual mitochondria were then analyzed using a Leica confocal microscope and IMARIS software. Data are presented as mean±SEM with single-factor ANOVA, and multiple Sidak comparisons. *, p<0.05, **, p<0.01, ***, p<0.001 with respect to DMSO.
FIG. 11: following the treatment of the RNVCs with the compounds as indicated, the cell volume was stained with 4 μM of calcein-AM. The cell volume was then analyzed using the IMARIS software.
Confocal microscopy. On day 0, 4×10^5 neonatal cardiomyocytes were plated overnight on laminin-coated 35 mm culture dishes (10 μg/ml). On day 1, the cells were treated with various compounds at 1 or 10 μM for 6 hours. The cells were incubated with Mitotracker Red 580 at 200 nM for 20 minutes at 37° C., then 4 μM of calcein (Calcein AM, Life Technologies, St Aubin, France) for 10 minutes at 37° C. The images were acquired with a Leica confocal microscope (SP5) (Mannheim, Germany). The mitochondrial network and the 3D model of cell volume were reconstructed using the IMARIS software (Bitplane Company, Zurich, Switzerland); therefore the cell volume, mitochondrial number and volume were analyzed.
Due to the importance of mitochondria and reactive oxygen species (ROS) levels in the fate of cardiomyocyte cells, the hypothesis that the compounds could impact the mitochondrial network was explored. Following treatment of the RNVCs with the compounds tested, the mitochondrial network was stained with 200 nM of Mitotracker and the cell volume with 4 μM of calcein-AM. Thus, the mitochondrial network and the individual mitochondria were then analyzed using the IMARIS software.

Experiment [3] has as its system DRP-1. Kind of experiment: Western blot of DRP-1 phosphorylation (Ser616) in RNVCs. Format: cell-based, rat. As for the experimental part: FIG. 6D: Drp-1 and P-Drp-1 and MFN2 protein levels in RNVCs analyzed by western blotting. *, p<0.05, **, p<0.01, ***, p<0.001 with respect to DMSO. The experiments were reproduced 3 times. Representative western blotting images and quantification of three independent experiments are presented as mean±SEM with single-factor ANOVA, and multiple Sidak comparisons.
(§1) The H9C2 cells and RNVCs were detached in LB containing: 50 mM Tris, 150 mM NaCl, 1 mM EDTA, 0.5% deoxycholate, 1% Triton X 100, 0.1% SDS (pH 8.0). The cells were collected and placed on ice for 30 minutes. The cells were then centrifuged at 2000 g for 20 minutes at for 4° C. The supernatant was transferred to a new tube and stored on ice. The protein concentration was determined by BCA assay. The protein samples were diluted with sample buffer (2× Laemmli, Sigma), mixed, and heated for 5 minutes at 95° C. […] The images were recorded with a gel imaging system (Bio Rad). […]
(§2) Due to the importance of mitochondria and reactive oxygen species (ROS) levels in the fate of cardiomyocyte cells, the hypothesis that the compounds could impact the mitochondrial network was explored. […] Thus, the mitochondrial network and the individual mitochondria were then analyzed using the IMARIS software.

Experiment [4] deals with MFN2. The experiment in a line: Western blot of MFN2 in RNVCs. The format is cell-based, rat. As for the experimental part:
FIG. 6C: MFN1 and MFN2 protein levels in RNVCs analyzed by western blotting.
as §1, §2

For the molecule `O=C1NC(c2ccccc2)=N/C1=C\c1cc2ccccc2c2ccccc12` [SG6163F], the “effect on A549 cell growth” value in experiment [1] is listed as “no proliferative effect”. In experiment [2], the number of mitochondria entry is reported as “increased” and the “total mitochondrial volume per cell” value is “increased”. Further, the “phosphorylation of DRP-1 at Ser616, (DRP1-P)/(DRP-1 total) ratio” value in experiment [3] is “stimulated fission by phosphorylation of DRP-1”.

On to `C[C@]12CC[C@H](O)C[C@H]1CC[C@@H]1[C@@H]2CC[C@]2(C)[C@@H](C3=CC(=O)OC3)CC[C@]12O` [digitoxigenin], for which, in experiment [4], the “expression of fusion protein MNF2” value is “decreased”. In experiment [1], the “effect on A549 cell growth” value was “significantly reduced cell growth and induced cell death”. Also, in experiment [2], the number of mitochondria result is reported as “increased” and the “total mitochondrial volume per cell” value is on record as “increased”.

In the case of `C[C@H]1O[C@@H](O[C@H]2[C@@H](O)C[C@H](O[C@H]3[C@@H](O)CC(O[C@H]4CC[C@@]5(C)[C@H](CC[C@@H]6[C@@H]5C[C@@H](O)[C@]5(C)[C@@H](C7=CC(=O)OC7)CC[C@]65O)C4)O[C@@H]3C)O[C@@H]2C)C[C@H](O)[C@@H]1O` (stereo partly shown) [digoxin], in experiment [4], the “expression of fusion protein MNF2” value is listed as “decreased”. Besides, the “effect on A549 cell growth” value in experiment [1] is “significantly reduced cell growth and induced cell death”. Also, in experiment [2], the number of mitochondria entry is “increased” and the “total mitochondrial volume per cell” value was “increased”. Besides, the “phosphorylation of DRP-1 at Ser616, (DRP1-P)/(DRP-1 total) ratio” value in experiment [3] is “stimulated fission by phosphorylation of DRP-1”.
